Data: US20120121591A1 (priority 2009, published 2012)
Where two headings read alike, the source gives them in different places.

Assays:
Type in all cases: cell-based
[1] = biological target: hKv1.3 (Homo sapiens, UniProt P22001); assay: cell-based; conditions: Kv1.3 (IWQ) IC50 (nM, Avg)
[2] = test system: IL-2 secretion from T cells in human whole blood; conditions: read-out: WB (IL-2) IC50 (nM, Avg)
[3] = test system: IFN-g secretion from T cells in human whole blood
[4] = read-out: WB (IFNg) IC50 (nM, Avg)

Sequence of hKv1.3 (P22001 whole entry): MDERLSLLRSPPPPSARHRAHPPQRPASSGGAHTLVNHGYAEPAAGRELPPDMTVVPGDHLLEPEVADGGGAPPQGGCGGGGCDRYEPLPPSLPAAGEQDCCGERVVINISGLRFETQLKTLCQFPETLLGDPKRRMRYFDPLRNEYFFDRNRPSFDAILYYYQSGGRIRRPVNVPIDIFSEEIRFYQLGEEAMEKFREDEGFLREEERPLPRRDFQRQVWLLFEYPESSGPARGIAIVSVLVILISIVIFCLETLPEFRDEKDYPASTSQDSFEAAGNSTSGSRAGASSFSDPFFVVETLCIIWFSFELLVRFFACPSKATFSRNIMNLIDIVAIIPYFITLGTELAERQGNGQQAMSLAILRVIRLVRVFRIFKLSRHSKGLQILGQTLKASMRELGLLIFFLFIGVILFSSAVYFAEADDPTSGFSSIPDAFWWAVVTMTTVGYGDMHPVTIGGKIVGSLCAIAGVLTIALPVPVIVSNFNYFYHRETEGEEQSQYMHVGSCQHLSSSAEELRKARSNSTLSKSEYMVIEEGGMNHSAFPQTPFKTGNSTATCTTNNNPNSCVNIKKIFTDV

| Structure (SMILES) | IC50 [1] | IC50 [2] | IC50 ([3]; read-out: WB (IFNg) IC5- (nM, Avg)) | IC50 [3, 4] |
| --- | --- | --- | --- | --- |
| CC[C@H](C)[C@@H]1NC(=O)[C@@H](NC(=O)[C@H](CO)NC(=O)[C@@H](N)CCCNC(=N)N)CSSC[C@@H](C(=O)O)NC(=O)[C@H]([C@@H](C)O)NC(=O)CNC(=O)[C@@H]2CSSC[C@@H]3NC(=O)[C@H](CCC(N)=O)NC(=O)[C@H](CCC(=O)O)NC(=O)[C@H](C)NC(=O)[C@H]([C@@H](C)O)NC(=O)[C@H](CSSC[C@H](NC(=O)[C@H](Cc4ccccc4)NC(=O)[C@H](CO)NC(=O)[C@H](CC(C)C)NC(=O)[C@H](CCCNC(=N)N)NC(=O)[C@H](Cc4ccc(O)cc4)NC(=O)[C@H](CCCCN)NC(=O)[C@H](CCSC)NC(=O)[C@H](CO)NC(=O)[C@H](Cc4c[nH]cn4)NC(=O)[C@H](CCCCN)NC3=O)C(=O)N[C@@H](CCCNC(=N)N)C(=O)N[C@@H](CCCCN)C(=O)N[C@@H]([C@@H](C)O)C(=O)N2)NC(=O)[C@H](CCCNC(=N)N)NC(=O)[C@H](CO)NC(=O)[C@H](CCCCN)NC(=O)[C@@H]2CCCN2C(=O)[C@H]([C@@H](C)CC)NC(=O)[C@H]([C@@H](C)O)NC(=O)[C@H](CC(=O)O)NC1=O [[Glu15]ShK] | 0.266 nM | 0.312 nM | 0.575 nM |  |
| CC[C@H](C)[C@@H]1NC(=O)[C@@H](NC(=O)[C@H](CO)NC(=O)[C@@H](N)CCCNC(=N)N)CSSC[C@@H](C(N)=O)NC(=O)[C@H]([C@@H](C)O)NC(=O)CNC(=O)[C@@H]2CSSC[C@@H]3NC(=O)[C@H](CCCCN)NC(=O)[C@H](Cc4ccccc4)NC(=O)[C@H](C)NC(=O)[C@H]([C@@H](C)O)NC(=O)[C@H](CSSC[C@H](NC(=O)[C@H](Cc4ccc5ccccc5c4)NC(=O)[C@H](CO)NC(=O)[C@H](CC(C)C)NC(=O)[C@H](CCCNC(=N)N)NC(=O)[C@H](Cc4ccc(O)cc4)NC(=O)[C@H](CCCCN)NC(=O)[C@H](CCSC)NC(=O)[C@H](CO)NC(=O)[C@H](Cc4c[nH]cn4)NC(=O)[C@H](CCCCN)NC3=O)C(=O)N[C@@H](CCCCN)C(=O)N[C@@H](CCCCN)C(=O)N[C@@H]([C@@H](C)O)C(=O)N2)NC(=O)[C@H](CCCNC(=N)N)NC(=O)[C@H](CO)NC(=O)[C@H](CCCCN)NC(=O)[C@@H]2CCCN2C(=O)[C@H]([C@@H](C)CC)NC(=O)[C@H]([C@@H](C)O)NC(=O)[C@H](CC(=O)O)NC1=O [[Lys16, 29;2-Nal27]ShK-amide] | 10.1 nM | 13.1 nM |  | 24.7 nM |
| CCCC[C@@H]1NC(=O)[C@H](CO)NC(=O)[C@H](Cc2c[nH]cn2)NC(=O)[C@H](CCCCN)NC(=O)[C@@H]2CSSC[C@@H]3NC(=O)[C@H]([C@@H](C)O)NC(=O)[C@H](CCCCN)NC(=O)[C@H](CCCNC(=N)N)NC(=O)[C@H](CSSC[C@H](NC(=O)[C@H](CCCNC(=N)N)NC(=O)[C@H](CO)NC(=O)[C@H](CCCCN)NC(=O)[C@@H]4CCCN4C(=O)[C@H]([C@@H](C)CC)NC(=O)[C@H]([C@@H](C)O)NC(=O)[C@H](CC(=O)O)NC(=O)[C@H]([C@@H](C)CC)NC(=O)[C@@H](NC(=O)[C@H](CO)NC(=O)[C@@H](N)CCCNC(=N)N)CSSC[C@@H](C(=O)O)NC(=O)[C@H]([C@@H](C)O)NC(=O)CNC3=O)C(=O)N[C@@H]([C@@H](C)O)C(=O)N[C@@H](C)C(=O)N[C@@H](Cc3ccccc3)C(=O)N[C@@H](CCCCN)C(=O)N2)NC(=O)[C@H](Cc2ccccc2)NC(=O)[C@H](CO)NC(=O)[C@H](CC(C)C)NC(=O)[C@H](CCCNC(=N)N)NC(=O)[C@H](Cc2ccc(O)cc2)NC(=O)[C@H](CCCCN)NC1=O [[Lys16,N1e21]ShK] | 0.13 nM | 0.249 nM |  | 0.848 nM |
| CC[C@H](C)[C@@H]1NC(=O)[C@@H](NC(=O)[C@H](CO)NC(=O)[C@@H](N)CCCNC(=N)N)CSSC[C@@H](C(=O)O)NC(=O)[C@H]([C@@H](C)O)NC(=O)CNC(=O)[C@@H]2CSSC[C@@H]3NC(=O)[C@H](CCC(N)=O)NC(=O)[C@H](Cc4ccccc4)NC(=O)[C@H](C)NC(=O)[C@H]([C@@H](C)O)NC(=O)[C@H](CSSC[C@H](NC(=O)[C@H](Cc4ccccc4)NC(=O)[C@H](CO)NC(=O)[C@H](CC(C)C)NC(=O)[C@H](CCCNC(=N)N)NC(=O)[C@H](Cc4ccc(O)cc4)NC(=O)[C@H](CCCCN)NC(=O)[C@H](CCSC)NC(=O)[C@H](CO)NC(=O)[C@H](Cc4c[nH]cn4)NC(=O)[C@H](CCCCN)NC3=O)C(=O)N[C@@H](CCCNC(=N)N)C(=O)N[C@@H](CCCCN)C(=O)N[C@@H]([C@@H](C)O)C(=O)N2)NC(=O)[C@H](CCCNC(=N)N)NC(=O)[C@H](CO)NC(=O)[C@H](CCCNC(=N)N)NC(=O)[C@@H]2CCCN2C(=O)[C@H]([C@@H](C)CC)NC(=O)[C@H]([C@@H](C)O)NC(=O)[C@H](CC(=O)O)NC1=O [[Arg9]ShK] | 0.096 nM | 0.108 nM |  | 0.116 nM |
| CC[C@H](C)[C@@H]1NC(=O)[C@@H](NC(=O)[C@H](CO)NC(=O)[C@@H](N)CCCNC(=N)N)CSSC[C@@H](C(=O)O)NC(=O)[C@H]([C@@H](C)O)NC(=O)CNC(=O)[C@@H]2CSSC[C@@H]3NC(=O)[C@H](CCC(N)=O)NC(=O)[C@H](Cc4ccccc4)NC(=O)[C@H](C)NC(=O)[C@H]([C@@H](C)O)NC(=O)[C@H](CSSC[C@H](NC(=O)[C@H](CCCNC(=N)N)NC(=O)[C@H](CO)NC(=O)[C@H](CC(C)C)NC(=O)[C@H](CCCNC(=N)N)NC(=O)[C@H](Cc4ccc(O)cc4)NC(=O)[C@H](CCCCN)NC(=O)[C@H](CCSC)NC(=O)[C@H](CO)NC(=O)[C@H](Cc4c[nH]cn4)NC(=O)[C@H](CCCCN)NC3=O)C(=O)N[C@@H](CCCNC(=N)N)C(=O)N[C@@H](CCCCN)C(=O)N[C@@H]([C@@H](C)O)C(=O)N2)NC(=O)[C@H](CCCNC(=N)N)NC(=O)[C@H](CO)NC(=O)[C@H](CCCCN)NC(=O)[C@@H]2CCCN2C(=O)[C@H]([C@@H](C)CC)NC(=O)[C@H]([C@@H](C)O)NC(=O)[C@H](CC(=O)O)NC1=O [[Arg27]ShK] | 100 nM | 13 nM |  | 59.7 nM |
| CC[C@H](C)[C@@H]1NC(=O)[C@@H](NC(=O)[C@H](CO)NC(=O)[C@@H](N)CCCNC(=N)N)CSSC[C@@H](C(=O)O)NC(=O)[C@H]([C@@H](C)O)NC(=O)CNC(=O)[C@@H]2CSSC[C@@H]3NC(=O)[C@H](CCC(N)=O)NC(=O)[C@H](Cc4ccccc4)NC(=O)[C@H](C)NC(=O)[C@H]([C@@H](C)O)NC(=O)[C@H](CSSC[C@H](NC(=O)[C@H](Cc4ccccc4)NC(=O)[C@H](CO)NC(=O)[C@H](CC(C)C)NC(=O)[C@H](CCCNC(=N)N)NC(=O)[C@H](Cc4ccc(O)cc4)NC(=O)[C@H](CCCCN)NC(=O)[C@H](CCSC)NC(=O)[C@H](CCCNC(=N)N)NC(=O)[C@H](Cc4c[nH]cn4)NC(=O)[C@H](CCCCN)NC3=O)C(=O)N[C@@H](CCCNC(=N)N)C(=O)N[C@@H](CCCCN)C(=O)N[C@@H]([C@@H](C)O)C(=O)N2)NC(=O)[C@H](CCCNC(=N)N)NC(=O)[C@H](CO)NC(=O)[C@H](CCCCN)NC(=O)[C@@H]2CCCN2C(=O)[C@H]([C@@H](C)CC)NC(=O)[C@H]([C@@H](C)O)NC(=O)[C@H](CC(=O)O)NC1=O [[Arg20]ShK] | 3.84 nM | 36.9 nM |  | 31.3 nM |
| CC[C@H](C)[C@@H]1NC(=O)[C@@H](NC(=O)[C@H](CO)NC(=O)[C@@H](N)CCCNC(=N)N)CSSC[C@@H](C(N)=O)NC(=O)[C@H]([C@@H](C)O)NC(=O)CNC(=O)[C@@H]2CSSC[C@@H]3NC(=O)[C@H](CCCCN)NC(=O)[C@H](Cc4ccccc4)NC(=O)[C@H](C)NC(=O)[C@H]([C@@H](C)O)NC(=O)[C@H](CSSC[C@H](NC(=O)[C@H](Cc4ccccc4)NC(=O)[C@H](CO)NC(=O)[C@H](CC(C)C)NC(=O)[C@H](CCCNC(=N)N)NC(=O)[C@H](Cc4ccc(O)cc4)NC(=O)[C@H](CCCCN)NC(=O)[C@H](CC(=O)O)NC(=O)[C@H](CO)NC(=O)[C@H](Cc4c[nH]cn4)NC(=O)[C@H](CCCCN)NC3=O)C(=O)N[C@@H](CCCNC(=N)N)C(=O)N[C@@H](CCCCN)C(=O)N[C@@H]([C@@H](C)O)C(=O)N2)NC(=O)[C@H](CCCNC(=N)N)NC(=O)[C@H](CO)NC(=O)[C@H](CCCCN)NC(=O)[C@@H]2CCCN2C(=O)[C@H]([C@@H](C)CC)NC(=O)[C@H]([C@@H](C)O)NC(=O)[C@H](CC(=O)O)NC1=O [[Lys16, Asp21]ShK-amide] | 0.35 nM | 2.31 nM |  | 3.63 nM |
| CCC[C@@H]1NC(=O)[C@H](CO)NC(=O)[C@H](Cc2c[nH]cn2)NC(=O)[C@H](CCCCN)NC(=O)[C@@H]2CSSC[C@@H]3NC(=O)[C@H]([C@@H](C)O)NC(=O)[C@H](CCCCN)NC(=O)[C@H](CCCNC(=N)N)NC(=O)[C@H](CSSC[C@H](NC(=O)[C@H](CCCNC(=N)N)NC(=O)[C@H](CO)NC(=O)[C@H](CCCCN)NC(=O)[C@@H]4CCCN4C(=O)[C@H]([C@@H](C)CC)NC(=O)[C@H]([C@@H](C)O)NC(=O)[C@H](CC(=O)O)NC(=O)[C@H]([C@@H](C)CC)NC(=O)[C@@H](NC(=O)[C@H](CO)NC(=O)[C@@H](N)CCCNC(=N)N)CSSC[C@@H](C(=O)N[C@@H](CO)C(N)=O)NC(=O)[C@H]([C@@H](C)O)NC(=O)CNC3=O)C(=O)N[C@@H]([C@@H](C)O)C(=O)N[C@@H](C)C(=O)N[C@@H](Cc3ccccc3)C(=O)N[C@@H](CCCCN)C(=O)N2)NC(=O)[C@H](Cc2ccccc2)NC(=O)[C@H](CO)NC(=O)[C@H](CC(C)C)NC(=O)[C@H](CCCNC(=N)N)NC(=O)[C@H](Cc2ccc(O)cc2)NC(=O)[C@H](CCCCN)NC1=O [[Lys16,Nva21]ShK-Ser-amide] | 0.09 nM | 0.467 nM |  | 0.662 nM |
